Like-named read-outs stand apart in the source and are kept apart here.
How the values were obtained:
HEK293 cells [1] = experiment: cells; details: Homo sapiens
HepG2 cells [2] = experiment: cells; details: Homo sapiens
HepG2 cells [3] = experiment: CellTox Green Cytotoxicity Assay (flor) in HepG2, HepG2[flor]; type: cell-based, human; details: HepG2 flor; for EC50: Homo sapiens, given as negative log-scale values;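 on hepg2 flor emax 0: percent activity versus DMSO-only wells with baseline rescaled to 0%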;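 on hepg2 flor emax 40: percent activity versus DMSO-only wells with baseline rescaled to 0%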
HEK293 cells [4] = experiment: cells; details: Homo sapiens; remark: listed apart in the source
HEK293 cells [5] = details: HEK293 glo
HEK293 cells [6] = details: HEK293 flor
[7] = tested on: HEK293 and HepG2 cell lines; details: any activity in any time point/assay
HepG2 cells [8] = details: HepG2 glo
NRF2 = details: cited from earlier work

## O=S1(=O)OC(c2ccc(O)cc2)(c2ccc(O)cc2)c2ccccc21 [Phenol red]
HEK293 cells [1]; HEK293, read-out: hek293_flor_ec50_0
  EC50: > 38.3 µM
HEK293 cells [1]; HEK293, read-out: hek293_flor_ec50_8
  EC50: > 38.3 µM
HEK293 cells [1]; HEK293, read-out: hek293_flor_ec50_16
  EC50: > 38.3 µM
HEK293 cells [1]; HEK293, read-out: hek293_flor_ec50_24
  EC50: > 38.3 µM
HEK293 cells [1]; HEK293, read-out: hek293_flor_ec50_32
  EC50: > 38.3 µM
HEK293 cells [1]; HEK293, read-out: hek293_flor_ec50_40
  EC50: > 38.3 µM
HepG2 cells [2]; HepG2, read-out: hepg2_glo_ec50_0
  EC50: 25.6 µM
HepG2 cells [2]; HepG2, read-out: hepg2_glo_ec50_8
  EC50: > 38.3 µM
HepG2 cells [2]; HepG2, read-out: hepg2_glo_ec50_16
  EC50: > 38.3 µM
HepG2 cells [2]; HepG2, read-out: hepg2_glo_ec50_24
  EC50: > 38.3 µM
HepG2 cells [2]; HepG2, read-out: hepg2_glo_ec50_32
  EC50: > 38.3 µM
HepG2 cells [2]; HepG2, read-out: hepg2_glo_ec50_40
  EC50: > 38.3 µM
HepG2 cells [3]
  hepg2_flor_auc: 0
  hepg2_flor_time: 48
HepG2 cells [3]; kinetics bin
  hepg2_flor_bin: inactive
HepG2 cells [3]; time point 0
  hepg2_flor_emax_0: 0
  hepg2_flor_pod_0: -4.417
  hepg2_flor_wauc_0: 0
HepG2 cells [3]; time point 8
  hepg2_flor_emax_8: 0
  hepg2_flor_pod_8: -4.417
  hepg2_flor_wauc_8: 0
HepG2 cells [3]; time point 16
  hepg2_flor_emax_16: 0
  hepg2_flor_pod_16: -4.417
  hepg2_flor_wauc_16: 0
HepG2 cells [3]; time point 24
  hepg2_flor_emax_24: 0
  hepg2_flor_pod_24: -4.417
  hepg2_flor_wauc_24: 0
HepG2 cells [3]; time point 32
  hepg2_flor_emax_32: 0
  hepg2_flor_pod_32: -4.417
  hepg2_flor_wauc_32: 0
HepG2 cells [3]; time point 40
  hepg2_flor_emax_40: 0
  hepg2_flor_pod_40: -4.417
  hepg2_flor_wauc_40: 0
HepG2 cells [3]; time point 0, read-out: hepg2_flor_ec50_0
  EC50: > 38.3 µM
HepG2 cells [3]; time point 8, read-out: hepg2_flor_ec50_8
  EC50: > 38.3 µM
HepG2 cells [3]; time point 16, read-out: hepg2_flor_ec50_16
  EC50: > 38.3 µM
HepG2 cells [3]; time point 24, read-out: hepg2_flor_ec50_24
  EC50: > 38.3 µM
HepG2 cells [3]; time point 32, read-out: hepg2_flor_ec50_32
  EC50: > 38.3 µM
HepG2 cells [3]; time point 40, read-out: hepg2_flor_ec50_40
  EC50: > 38.3 µM
HEK293 cells [4]; HEK293, read-out: hek293_glo_ec50_0
  EC50: 25.6 µM
HEK293 cells [4]; HEK293, read-out: hek293_glo_ec50_8
  EC50: 25.6 µM
HEK293 cells [4]; HEK293, read-out: hek293_glo_ec50_16
  EC50: 25.6 µM
HEK293 cells [4]; HEK293, read-out: hek293_glo_ec50_24
  EC50: > 38.3 µM
HEK293 cells [4]; HEK293, read-out: hek293_glo_ec50_32
  EC50: > 38.3 µM
HEK293 cells [4]; HEK293, read-out: hek293_glo_ec50_40
  EC50: > 38.3 µM
HEK293 cells [5]
  hek293_glo_auc: 1.203
  hek293_glo_time: 40
HEK293 cells [5]; kinetics bin
  hek293_glo_bin: no_cv (no_cv: time > 40)
HEK293 cells [5]; time point 0
  hek293_glo_emax_0: -33.7
  hek293_glo_pod_0: -4.507
  hek293_glo_wauc_0: 0.8079
HEK293 cells [5]; time point 8
  hek293_glo_emax_8: -27.7816
  hek293_glo_pod_8: -4.452
  hek293_glo_wauc_8: 0.7338
HEK293 cells [5]; time point 16
  hek293_glo_emax_16: -27.6507
  hek293_glo_pod_16: -4.4502
  hek293_glo_wauc_16: 0.732
HEK293 cells [5]; time point 24
  hek293_glo_emax_24: 0
  hek293_glo_pod_24: -4.417
  hek293_glo_wauc_24: 0
HEK293 cells [5]; time point 32
  hek293_glo_emax_32: 0
  hek293_glo_pod_32: -4.417
  hek293_glo_wauc_32: 0
HEK293 cells [5]; time point 40
  hek293_glo_emax_40: 0
  hek293_glo_pod_40: -4.417
  hek293_glo_wauc_40: 0
HEK293 cells [6]
  hek293_flor_auc: 0
  hek293_flor_time: 48
HEK293 cells [6]; kinetics bin
  hek293_flor_bin: inactive
HEK293 cells [6]; time point 0
  hek293_flor_emax_0: 0
  hek293_flor_pod_0: -4.417
  hek293_flor_wauc_0: 0
HEK293 cells [6]; time point 8
  hek293_flor_emax_8: 0
  hek293_flor_pod_8: -4.417
  hek293_flor_wauc_8: 0
HEK293 cells [6]; time point 16
  hek293_flor_emax_16: 0
  hek293_flor_pod_16: -4.417
  hek293_flor_wauc_16: 0
HEK293 cells [6]; time point 24
  hek293_flor_emax_24: 0
  hek293_flor_pod_24: -4.417
  hek293_flor_wauc_24: 0
HEK293 cells [6]; time point 32
  hek293_flor_emax_32: 0
  hek293_flor_pod_32: -4.417
  hek293_flor_wauc_32: 0
HEK293 cells [6]; time point 40
  hek293_flor_emax_40: 0
  hek293_flor_pod_40: -4.417
  hek293_flor_wauc_40: 0
[7]
  information: 1
HepG2 cells [8]
  hepg2_glo_auc: 0.5829
HepG2 cells [8]; kinetics bin
  hepg2_glo_bin: inconclusive
HepG2 cells [8]; time point 0
  hepg2_glo_emax_0: -25.8612
  hepg2_glo_pod_0: -4.428
  hepg2_glo_wauc_0: 0.7068
HepG2 cells [8]; time point 8
  hepg2_glo_emax_8: 0
  hepg2_glo_pod_8: -4.417
  hepg2_glo_wauc_8: 0
HepG2 cells [8]; time point 16
  hepg2_glo_emax_16: 0
  hepg2_glo_pod_16: -4.417
  hepg2_glo_wauc_16: 0
HepG2 cells [8]; time point 24
  hepg2_glo_emax_24: 0
  hepg2_glo_pod_24: -4.417
  hepg2_glo_wauc_24: 0
HepG2 cells [8]; time point 32
  hepg2_glo_emax_32: 0
  hepg2_glo_pod_32: -4.417
  hepg2_glo_wauc_32: 0
HepG2 cells [8]; time point 40
  hepg2_glo_emax_40: 0
  hepg2_glo_pod_40: -4.417
  hepg2_glo_wauc_40: 0

## Phenol, isopropylated, phosphate (3:1)
NRF2
  increase NRF2 TF activity, POD potency: 4.21 log10(M)*-1
